Patent US10759814B2, “Pharmaceutical compositions containing substituted polycyclic pyridone derivatives and prodrug thereof” (priority 2016, dated 2020)
Read-outs that look alike come from different tables or passages of the source.

Tests used:
influenza virus = type: in vivo, human; conditions: 20 to <65 years old
[1] = type: in vivo, human; conditions: Compound II-6 single 40 or 80 mg; Oseltamivir 75 mg twice a day for 5 days
Source text: (4) Incidence of side effects
(4) Incidence of Side Effects
The number of side-effect episodes and the number of patients with side effect were counted for each administration group.

red blood cells = test: Light hemolysis test; type: cell-based, sheep; conditions: UV-irradiation 290 to 400 nm; 0.0008 to 0.1 w/v %
Method: Test Example 12: Light Hemolysis Test
The compound used in the present invention was dissolved at target concentrations and was mixed with a 2.5 v/v % suspension of red blood cells prepared from a defibrinated blood of sheep on a microplate at concentrations of 0.0008 to 0.1 w/v %. The mixtures were exposed to […] of UV-irradiation within a range of wavelength 290 to 400 nm, UVA and UVB using ultra violet fluorescent lamps, GL20SE and FL20S-BLB lamps manufactured by Sankyo Denki Co., Ltd. and Panasonic Corporation, respectively. After the completion of the irradiation, the mixtures were centrifuged, and a supernatant of the mixture was collected and was located on a microplate. The phototoxicity was assessed by measuring an absorbance at wavelength of 540 nm and 630 nm in the supernatant. The absorbance data at wavelength of 540 nm and 630 nm were used as indicators of biomembrane damage (photohemolysis %) and hyperoxidation of lipid membrane (methemoglobin formation), respectively. The criteria of phototoxicity was as follows; It was judged to be non-phototoxic (−) when the photohemolysis %<10 and the maximal change in the absorbance at 630 nm (ΔOD)<0.05 were observed. It was judged to be […] when the photohemolysis was more than 10% and the maximal change in the absorbance at 630 nm (ΔOD) was more than 0.05.

[2] = Metabolism stability test; type: in vitro ADME, human; conditions: 2 μmol/L of test compound; 37° C., 30 minutes
Method: Test Example 5: Metabolism Stability Test
A reaction was performed (oxidative reaction) at 37° C. for 0 minute or 30 minutes in the presence of 1 mmol/L NADPH in 0.2 mL of a buffer (50 mmol/L Tris-HCl pH 7.4, 150 mmol/L potassium chloride, 10 mmol/L magnesium chloride) containing 0.5 mg protein/mL of human liver microsomes. After the reaction, 50 μL of the reaction solution was added to 100 μL of a methanol/acetonitrile=1/1 (v/v), mixed and centrifuged at 3000 rpm for 15 minutes. The compound used in the present invention in the supernatant was quantified by LC/MS/MS or Solid Phase Extraction (SPE)/MS, and a remaining amount of the compound used in the present invention after the reaction was calculated, letting a compound amount at 0 minute reaction time to be 100%. Hydrolysis reaction was performed in the absence of NADPH and glucuronidation reaction was in the presence of 5 mM UDP-glucuronic acid in place of NADPH, followed by similar operations.

SMILES | Amount of change in virus titer from baseline, mean (influenza virus; Day 2 (24 hours later)) | Proportion of patients having a positive influenza virus titer (influenza virus; Day 2 (24 hours later)) | Amount of change in virus titer from baseline, mean (influenza virus; Day 3 (48 hours later)) | Proportion of patients having a positive influenza virus titer (influenza virus; Day 3 (48 hours later)) | Amount of change in virus titer from baseline, mean (influenza virus; Day 4 (72 hours later)) | Proportion of patients having a positive influenza virus titer (influenza virus; Day 4 (72 hours later)) | Amount of change in virus titer from baseline, mean (influenza virus; Day 5 (96 hours later)) | Proportion of patients having a positive influenza virus titer (influenza virus; Day 5 (96 hours later)) | Amount of change in virus titer from baseline, mean (influenza virus; Day 6 (120 hours later)) | Proportion of patients having a positive influenza virus titer (influenza virus; Day 6 (120 hours later)) | Amount of change in virus titer from baseline, mean (influenza virus; Day 9 (192 hours later)) | Proportion of patients having a positive influenza virus titer (influenza virus; Day 9 (192 hours later)) | Incidence of adverse events the causal relationship of which cannot be denied (patients) [1] | phototoxicity (red blood cells) | remaining rate after reaction with human liver microsomes (printed: % inhibition) [2]
CCOC(=O)C1=C[C@@H](OC(CC)CC)[C@H](NC(C)=O)[C@@H](N)C1 [Oseltamivir, reference compound] | −2.51 log10 [TCID50/mL] | 91.0% | −4.20 log10 [TCID50/mL] | 57.3% | −4.63 log10 [TCID50/mL] | 27.6% | −4.98 log10 [TCID50/mL] | 20.9% | −4.85 log10 [TCID50/mL] | 9.0% | −5.22 log10 [TCID50/mL] | 3.2% | 8.4% |  | 
O=C1c2c(O)c(=O)ccn2N([C@@H]2c3ccccc3SCc3c2ccc(F)c3F)[C@@H]2COCCN12 [III-2] |  |  |  |  |  |  |  |  |  |  |  |  |  | (−) (It was judged to be non-phototoxic (−) when the photohemolysis %<10 and the maximal change in the absorbance at 630 nm (ΔOD)<0.05 were observed) | 90.1%
